This is an account of results in patent publication US11446287B2, “Compounds and methods for EP300 or CBP modulation and indications therefor” (Opna Immuno-Oncology SA, priority 2019, dated 2022).

One may read the IC50 as the midpoint of a concentration-inhibition curve.

Structures are written as SMILES.

For the assay, the target named is T1, Recombinant human EP300 containing the bromodomain (EP300-BD (1040-1161)) (Homo sapiens, UniProt Q09472).
T1 construct: Recombinant human EP300 bromodomain (EP300-BD (1040-1161)); made in house; host or cells: E. coli BL21-CodonPlus (DE3), modified pET vector
T1 sequence (Q09472 1040-1161): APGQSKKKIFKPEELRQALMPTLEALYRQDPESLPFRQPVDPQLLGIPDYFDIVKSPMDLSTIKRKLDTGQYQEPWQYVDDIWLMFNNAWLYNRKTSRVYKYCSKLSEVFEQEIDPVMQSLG
Description: EP300 Alphascreen binding assay. A digest of the protocol:
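Displacement of a biotinylated acetyl-K56 histone H3 peptide from the N-His bromodomain construct (1040-1161) measured by AlphaScreen proximity, beads at 7.5 μg/ml final, read 60 min after addition. Protein, peptide and compound first incubated 1 h at room temperature, pH 7.5 HEPES buffer; IC50 by four-parameter logistic fit.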
In general terms: In Alpha technology, singlet oxygen from a donor bead excites a nearby acceptor bead.
As for `Cc1noc(C)c1-c1cnc2c(c1)c(-c1cnn(C(C)(C)C(=O)O)c1)cn2C(c1ccccn1)C1CCCC1` (stereo not shown) [P-0035, 2-(4-(1-(cyclopentyl(pyridin-2-yl)methyl)-5-(3,5-dimethylisoxazol-4-yl)-1H-pyrrolo[2,3-b]pyridin-3-yl)-1H-pyrazol-1-yl)-2-methylpropanoic acid], the IC50 was in the range of 0.0001 to 1 µM.
For the compound `Cc1noc(C)c1-c1cnc2c(c1)c(-c1cnn(CC(=O)O)c1)cn2C(c1ccccn1)C1CCCC1` (stereo not shown) [P-0036, 2-(4-(1-(cyclopentyl(pyridin-2-yl)methyl)-5-(3,5-dimethylisoxazol-4-yl)-1H-pyrrolo[2,3-b]pyridin-3-yl)-1H-pyrazol-1-yl)acetic acid], the IC50 was in the range of 0.0001 to 1 µM.
In the case of `Cc1noc(C)c1-c1cnc2c(c1)c(-c1cnn(CC(C)(C)O)c1)cn2C(c1ccccn1)C1CCCC1` (stereo not shown) [P-0037, 1-(4-(1-(cyclopentyl(pyridin-2-yl)methyl)-5-(3,5-dimethylisoxazol-4-yl)-1H-pyrrolo[2,3-b]pyridin-3-yl)-1H-pyrazol-1-yl)-2-methylpropan-2-ol], the IC50 was 1 to 8 µM.
Then `Cc1noc(C)c1-c1cnc2c(c1)c(-c1ccc(C(=O)O)c(Cl)c1)cn2C(c1ccccn1)C1CCCC1` (stereo not shown) [P-0038, 2-chloro-4-(1-(cyclopentyl(pyridin-2-yl)methyl)-5-(3,5-dimethylisoxazol-4-yl)-1H-pyrrolo[2,3-b]pyridin-3-yl)benzoic acid], with 0.0001 to 1 µM.
Then `COC(=O)c1cc(-c2cn(C(c3ccccn3)C3CCCC3)c3ncc(-c4c(C)noc4C)cc23)ccn1` (stereo not shown) [P-0040, methyl 4-(1-(cyclopentyl(pyridin-2-yl)methyl)-5-(3,5-dimethylisoxazol-4-yl)-1H-pyrrolo[2,3-b]pyridin-3-yl)picolinate], with 0.0001 to 1 µM; and `Cc1noc(C)c1-c1cnc2c(c1)c(-c1ccnc(C(=O)O)c1)cn2C(C1CC1)C1CC1` [P-0041, 4-(1-(dicyclopropylmethyl)-5-(3,5-dimethylisoxazol-4-yl)-1H-pyrrolo[2,3-b]pyridin-3-yl)picolinic acid], with 0.0001 to 1 µM; and `Cc1noc(C)c1-c1cnc2c(c1)c(-c1ccnc(C(=O)O)c1)cn2Cc1ccccc1` [P-0042, 4-(1-benzyl-5-(3,5-dimethylisoxazol-4-yl)-1H-pyrrolo[2,3-b]pyridin-3-yl)picolinic acid], with 0.0001 to 1 µM.
Next, `Cc1noc(C)c1-c1cnc2c(c1)c(-c1ccnc(C(=O)O)c1)cn2C(c1ccccn1)C1CCC1` (stereo not shown) [P-0043, 4-(1-(cyclobutyl(pyridin-2-yl)methyl)-5-(3,5-dimethylisoxazol-4-yl)-1H-pyrrolo[2,3-b]pyridin-3-yl)picolinic acid]: 0.0001 to 1 µM; `Cc1noc(C)c1-c1cnc2c(c1)c(-c1ccnc(C(=O)O)c1)cn2Cc1ccccn1` [P-0044, 4-(5-(3,5-dimethylisoxazol-4-yl)-1-(pyridin-2-ylmethyl)-1H-pyrrolo[2,3-b]pyridin-3-yl)picolinic acid]: 0.0001 to 1 µM; `Cc1noc(C)c1-c1cnc2c(c1)c(-c1ccnc(C(=O)O)c1)cn2CC1CC1` [P-0045, 4-(1-(cyclopropylmethyl)-5-(3,5-dimethylisoxazol-4-yl)-1H-pyrrolo[2,3-b]pyridin-3-yl)picolinic acid]: 0.0001 to 1 µM.
As for `COC(=O)c1cc(-c2cn(C(c3ccccn3)C3CCC3)c3ncc(-c4c(C)noc4C)cc23)ccn1` (stereo not shown) [P-0046, methyl 4-(1-(cyclobutyl(pyridin-2-yl)methyl)-5-(3,5-dimethylisoxazol-4-yl)-1H-pyrrolo[2,3-b]pyridin-3-yl)picolinate], the IC50 was 0.0001 to 1 µM.
Next, `COc1cc(C(=O)O)ccc1-c1cn([C@@H](C)c2ccccn2)c2ncc(-c3c(C)noc3C)cc12` [P-0047, (S)-4-(5-(3,5-dimethylisoxazol-4-yl)-1-(1-(pyridin-2-yl)ethyl)-1H-pyrrolo[2,3-b]pyridin-3-yl)-3-methoxybenzoic acid]: 0.0001 to 1 µM; `Cc1noc(C)c1-c1cnc2c(c1)c(-c1cccc(C(=O)O)c1)cn2Cc1ccccc1` [P-0048, 3-(1-benzyl-5-(3,5-dimethylisoxazol-4-yl)-1H-pyrrolo[2,3-b]pyridin-3-yl)benzoic acid]: 0.0001 to 1 µM.
